Experimental data published in patent publication US8858952B2, “Methods and materials for generating T cells” (Mayo Foundation for Medical Education and Research, priority 2009, dated 2014).
“Also recorded” adds a separate entry of the source. Where no end group is shown, it is not given here. [ ]: non-standard residue; d: D form. Ava = NCCCCC(=O)O

Columns and labels:
[1] = test system: Foxp3^+ T cells; assay: Flow cytometry of CD4 T cell lines for FoxP3 expression; type: cell-based, FVB/N mice; conditions: FIG. 31
Source text: FIG. 31. […] Flow cytometry dot plots of naïve splenocytes, FR74-specific, FR74.4-specific CD4 T cell lines evaluating for FoxP3 expression. Quadrants set at isotype signal, and the lower right quadrant is percent of total cells in lymphocyte gate. T cells were derived from FVB/N mice.

[2] = test system: splenocytes; assay: Immunization with polypeptide-pulsed DC, splenocyte proliferation; type: in vivo, FVB/N mice; conditions: DC pulsed 2 hours; splenocytes at 1 week; FIG. 30
Description: FIG. 30. DC pulsed with modified polypeptides are more immunogenic than FR74-pulsed DC. […] Control=DC pulsed with media.
Alternatively, the strategies developed herein can be applied to other fields of immunotherapy. […] In that experiment, bone-marrow derived DC were pulsed with either PBS, FR74 peptide, or FR74.4 peptide for 2 hours. The DC were washed and injected into FVB/N mice.

[3] = test system: ovarian tumor; assay: Vaccination of ovarian tumor-bearing mice with native or nested epitope; type: in vivo; conditions: spleens and lymph nodes, day 50; FIGS. 32, 33
Description: Each bar is the mean of three mice, each done in triplicate. P values, comparing FR74-specific responses, were calculated using Tukey-Kramer Multiple Comparisons test.
Each bar is the mean of 3 mice, each done in triplicate. P values, comparing FR74-specific responses or tumor weights, were calculated using Tukey-Kramer Multiple Comparisons test.
Mice were implanted with ovarian tumor and 10 days later were treated with PBS, native epitope FR74 (2150 μg/kg in 100 μL injected at the base of the tail), or nested epitope FR74.4 (5000 μg/kg in 100 μL injected at the base of the tail) over the course of a week. On day 50, the mice were sacrificed and spleen, lymph node, and tumor tissue was harvested. T cell responses and tumor weights were then estimated. The number of FR74-specific T cells in the spleens and lymph nodes was determined (FIG. 32). T cells were estimated using an IFN-γ ELIspot assay testing responses against native FR74 (black bars) or an irrelevant peptide (white bars). In addition, the proliferation of T cells, in response to native FR74 (black bars) or an irrelevant peptide (white bars), was measured in the spleens and lymph nodes (FIG. 33). T cell proliferation was estimated using a tritiated thymidine assay.
In addition, the weight of the greater omentum (a surrogate of total tumor burden) 50 days following last immunization was measured (FIG. 34C).

[4] = test system: bone marrow-derived DC; assay: Cytokine and chemokine multiplex analysis of DC culture supernatant; type: cell-based; conditions: DC culture media 48 hours after pulsing, versus native FR74
Description: FIG. 14. […] Shown are the concentrations of cytokines within DC culture media 48 hours after pulsing with the indicated polypeptides. Each bar is the mean (±s.e.m.) of duplicates samples. A repeat experiment yielded similar results.
FIG. 15. […] Shown are the concentrations of chemokines within DC culture media 48 hours after pulsing with the indicated polypeptides. Each bar is the mean (±s.e.m.) of duplicate samples. A repeat experiment yielded similar results.
FIG. 24. Modified polypeptides induce different release of IL-6 and IL-12p70. Shown are the concentrations of IL-6 and IL-12p70 within DC culture media 48 hours after pulsing with the indicated polypeptides. Each bar is the mean (±s.e.m.) of duplicate samples. A repeat experiment yielded similar results. Values associate with each bar are the actual mean concentrations measured.
Another potential reason for the enhanced T cell activation is that epitope nesting results in enhancement of cytokines that facilitate the induction of T cell activation. […]
This hypothesis is tested using antibody neutralization. […] Cytokine levels in the sera are quantitated by analyzing 100 μL of each well on a Bio-Plex using Bio-Plex Manager software (ver.4.). […] Both the DC and the T cells can be assessed for expression of the receptors using flow cytometry. […]

## FR74.4: dual conjugated polypeptide: FR74 nested between Ii-key and DC3 (Ac-LRMK[Ava]KDISYLYRFNWNHCGRARRFYPSYHSTPQRP)
[1]
  expansion of Foxp3+ T cells: blocks expansion of Foxp3^+ T cells
[2]
  splenocyte proliferation in response to native FR74 antigen after DC immunization: significantly elevated proliferative response
[3]
  immunogenicity as vaccine in tumor bearing mice (IFN-γ ELIspot and proliferation): more immunogenic than native epitopes
[4]; FIG. 14
  cytokine release by DC: selectively induces expression of IL-1α, IL-6, IL-12p70, IL-13 and TNF-α; also recorded: enhanced the release of IL-1α, IL-6, and IL-12p70
[4]; FIG. 15
  chemokine levels produced by DC: significantly higher levels of the T cell attracting chemokines, CCL7 (MCP-3), CCL1 (KC) CXCL10 (IP-10); also recorded: elevated levels of CCL7, CXCL1, and CXCL10
